Laboratory results from patent US9695155B2, “Herbicidal substituted pyrimidinyloxy benzene compounds” (E. I. DU PONT DE NEMOURS AND COMPANY, priority 2013, dated 2017).

How the values were obtained:
[1] = test system: wild oat; assay: Test D preemergence; format: in vivo, Avena fatua
From the text: (§1) Seeds of plant species selected from bluegrass (annual bluegrass, Poa annua), blackgrass (Alopecurus myosuroides), canarygrass (littleseed canarygrass, Phalaris minor), chickweed (common chickweed, Stellaria media), galium (catchweed bedstraw, Galium aparine), bromegrass, downy (downy bromegrass, Bromus tectorum), field poppy (Papaver rhoeas), field violet (Viola arvensis), green foxtail (Setaria viridis), deadnettle (henbit deadnettle, Lamium amplexicaule), Italian ryegrass (Lolium multiflorum), kochia (Kochia scoparia), lambsquarters (Chenopodium album), oilseed rape (Brassica napus), pigweed (Amaranthus retroflexus), chamomile (scentless chamomile, Matricaria inodora), Russian thistle (Salsola kali), speedwell (bird's-eye speedwell, Veronica persica), spring barley (Hordeum vulgare), spring wheat (Triticum aestivum), wild buckwheat (Polygonum convolvulus), wild mustard (Sinapis arvensis), wild oat (Avena fatua), wild radish (Raphanus raphanistrum), windgrass (Apera spica-venti), winter barley (Hordeum vulgare), and winter wheat (Triticum aestivum) were planted into a silt loam soil and treated preemergence with test chemicals formulated in a non-phytotoxic solvent mixture which included a surfactant.
(§2) At the same time, these species were planted in pots containing Redi-Earth® planting medium (Scotts Company, 14111 Scottslawn Road, Marysville, Ohio 43041) comprising spaghnum peat moss, vermiculite, wetting agent and starter nutrients and treated with postemergence applications of the test chemicals formulated in the same manner. Plants ranged in height from 2 to 18 cm (1- to 4-leaf stage). Treated plants and controls were maintained in a controlled growth environment for 7 to 21 days after which time all species were compared to controls and visually evaluated. Plant response ratings, summarized in Table D, are based on a scale of 0 to 100 where 0 is no effect and 100 is complete control. A dash (-) response means no test result.

[2] = test system: field violet; assay: Test D postemergence; format: in vivo, Viola arvensis
In short: (§3)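 In a controlled growth environment, treated and control plants were held 7 to 21 days, then compared visually. Damage was scored 0–100, where 100 means complete control. Sprays contained surfactant in a non-phytotoxic solvent; post-applied plants were at the 1- to 4-leaf stage.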

[3] = test system: wild mustard; assay: Test D preemergence; format: in vivo, Sinapis arvensis
In short: as §3

[4] = test system: speedwell; assay: Test D preemergence; format: in vivo, Veronica persica
In short: as §3

[5] = test system: wild buckwheat; assay: Test D preemergence; format: in vivo, Polygonum convolvulus
From the text: as §1, §2

[6] = test system: wild radish; assay: Test D postemergence; format: in vivo, Raphanus raphanistrum
From the text: as §1, §2

[7] = test system: windgrass; assay: Test D preemergence; format: in vivo, Apera spica-venti
In short: as §3

[8] = test system: wild radish; assay: Test D preemergence; format: in vivo, Raphanus raphanistrum
From the text: as §1, §2

[9] = test system: wild mustard; assay: Test D postemergence; format: in vivo, Sinapis arvensis
From the text: as §1, §2

[10] = test system: chamomile; assay: Test D preemergence; format: in vivo, Matricaria inodora; settings: scale 0-100
From the text: as §1, §2

[11] = test system: green foxtail; assay: Test D postemergence; format: in vivo, Setaria viridis
From the text: as §1, §2

[12] = test system: deadnettle; assay: Test D postemergence; format: in vivo, Lamium amplexicaule
In short: as §3

[13] = test system: oilseed rape; assay: Test D preemergence; format: in vivo, Brassica napus
In short: as §3

[14] = 16 g ai/ha, scale 0 (no effect) to 100 (complete control)
[15] = 31 g ai/ha, scale 0 to 100 (0 no effect, 100 complete control)
[16] = 62 g ai/ha, scale 0 to 100 (0 no effect, 100 complete control)
[17] = 125 g ai/ha, scale 0 to 100 (0 no effect, 100 complete control)
[18] = 250 g ai/ha, scale 0 to 100 (0 no effect, 100 complete control)
[19] = 31 g ai/ha, scale 0 (no effect) to 100 (complete control)

SMILES: Clc1cnc(Oc2ccccc2-n2cc(Cl)cn2)nc1 [Compound 3]
- Plant response rating, Oat, Wild [1, 14]: 0
- Plant response rating, Oat, Wild ([1]; 31 g ai/ha, scale 0-100): 0
- Plant response rating, Oat, Wild ([1]; 62 g ai/ha, scale 0-100): 0
- Plant response rating, Oat, Wild ([1]; 125 g ai/ha, scale 0-100): 0
- Plant response rating, Oat, Wild ([1]; 250 g ai/ha, scale 0-100): 10
- Plant response rating, Field Violet ([2]; 16 g ai/ha, scale 0-100): 20
- Plant response rating, Field Violet [2, 15]: 5
- Plant response rating, Field Violet [2, 16]: 5
- Plant response rating, Field Violet [2, 17]: 5
- Plant response rating, Field Violet [2, 18]: 20
- Plant response rating, Mustard, Wild [3, 14]: 30
- Plant response rating, Mustard, Wild ([3]; 31 g ai/ha, scale 0-100): 80
- Plant response rating, Mustard, Wild ([3]; 62 g ai/ha, scale 0-100): 80
- Plant response rating, Mustard, Wild ([3]; 125 g ai/ha, scale 0-100): 90
- Plant response rating, Mustard, Wild ([3]; 250 g ai/ha, scale 0-100): 100
- Plant response rating, Speedwell [4, 14]: 100
- Plant response rating, Speedwell [4, 19]: 100
- Plant response rating, Speedwell ([4]; 62 g ai/ha, scale 0-100): 100
- Plant response rating, Speedwell ([4]; 125 g ai/ha, scale 0-100): 100
- Plant response rating, Speedwell ([4]; 250 g ai/ha, scale 0-100): 100
- Plant response rating, Buckwheat, Wild [5, 14]: 0
- Plant response rating, Buckwheat, Wild ([5]; 31 g ai/ha, scale 0-100): 0
- Plant response rating, Buckwheat, Wild ([5]; 62 g ai/ha, scale 0-100): 0
- Plant response rating, Buckwheat, Wild ([5]; 125 g ai/ha, scale 0-100): 60
- Plant response rating, Buckwheat, Wild ([5]; 250 g ai/ha, scale 0-100): 100
- Plant response rating, Radish, Wild ([6]; 16 g ai/ha, scale 0-100): 70
- Plant response rating, Radish, Wild [6, 15]: 30
- Plant response rating, Radish, Wild [6, 16]: 40
- Plant response rating, Radish, Wild [6, 17]: 50
- Plant response rating, Radish, Wild [6, 18]: 75
- Plant response rating, Windgrass [7, 14]: 0
- Plant response rating, Windgrass [7, 19]: 0
- Plant response rating, Windgrass ([7]; 62 g ai/ha, scale 0-100): 0
- Plant response rating, Windgrass ([7]; 125 g ai/ha, scale 0-100): 10
- Plant response rating, Windgrass ([7]; 250 g ai/ha, scale 0-100): 20
- Plant response rating, Radish, Wild [8, 14]: 0
- Plant response rating, Radish, Wild [8, 19]: 20
- Plant response rating, Radish, Wild ([8]; 62 g ai/ha, scale 0-100): 60
- Plant response rating, Radish, Wild ([8]; 125 g ai/ha, scale 0-100): 90
- Plant response rating, Radish, Wild ([8]; 250 g ai/ha, scale 0-100): 95
- Plant response rating, Mustard, Wild ([9]; 16 g ai/ha, scale 0-100): 75
- Plant response rating, Mustard, Wild [9, 15]: 20
- Plant response rating, Mustard, Wild [9, 16]: 35
- Plant response rating, Mustard, Wild [9, 17]: 35
- Plant response rating, Mustard, Wild [9, 18]: 85
- Plant response rating, Chamomile ([10]; 31 g ai/ha): 0
- Plant response rating, Chamomile ([10]; 62 g ai/ha): 0
- Plant response rating, Chamomile ([10]; 125 g ai/ha): 20
- Plant response rating, Chamomile ([10]; 250 g ai/ha): 40
- Plant response rating, Foxtail, Green ([11]; 16 g ai/ha, scale 0-100): 10
- Plant response rating, Foxtail, Green [11, 15]: 0
- Plant response rating, Foxtail, Green [11, 16]: 0
- Plant response rating, Foxtail, Green [11, 17]: 0
- Plant response rating, Foxtail, Green [11, 18]: 10
- Plant response rating, Deadnettle ([12]; 16 g ai/ha, scale 0-100): 10
- Plant response rating, Deadnettle [12, 15]: 10
- Plant response rating, Deadnettle [12, 16]: 10
- Plant response rating, Deadnettle [12, 17]: 10
- Plant response rating, Deadnettle [12, 18]: 20
- Plant response rating, Oilseed Rape [13, 14]: 10
- Plant response rating, Oilseed Rape ([13]; 31 g ai/ha, scale 0-100): 75
- Plant response rating, Oilseed Rape ([13]; 62 g ai/ha, scale 0-100): 70
- Plant response rating, Oilseed Rape ([13]; 125 g ai/ha, scale 0-100): 100
- Plant response rating, Oilseed Rape ([13]; 250 g ai/ha, scale 0-100): 100
